# Experimental data from paper PMC12040169 (PLOS Biology, 2025).
# Assay: in vitro
# Conditions: human, hela cells, % viability
row,SMILES,"viability at 28.5 h, 10 µM [%]"
1,O=C(NCc1cccs1)c1cncc(-c2ccc(C(=O)N3CCOCC3)cc2)c1 [CBK158617],87.4
2,CC(C)(C)C(=O)CSc1nnc(-c2ccccc2)n1Cc1ccccc1 [CBK264960],108
3,C=CCN1C(=O)C2(CC(=O)N(Cc3ccccc3)C2=O)c2cc(OC)ccc21 (centres unmarked) [CBK075281],103
4,CN(CC(=O)Nc1ccc([N+](=O)[O-])cc1)S(=O)(=O)c1ccc2ccccc2c1 [CBK267422],92.7
5,Cn1nc2n(C)c(=O)c3ccc(C(=O)NC4CCCC4)cc3n2c1=O [CBK287811],113
6,Nc1c(C(F)(F)F)cc(Cl)nc1Cl [CBK005620],95.7
7,Cn1ncnc1COc1ccc(S(=O)(=O)NC2CCCC2)cc1 [CBK306305],107
8,Cn1c(=O)n(C)c2cc(NC(=O)C(F)(F)F)ccc21 [CBK021127],80.9
9,COc1cc(C2C3=C(CC(C)(C)CC3=O)Nc3ncnn32)ccc1OCC(=O)N1CCOCC1 (centres unmarked) [CBK268551],102
10,CCCSc1ncc(Cl)c(C(=O)Nc2ccc(C(=O)OC)cc2)n1 [CBK268824],102
11,O=C1/C(=C/c2c(NCCCn3ccnc3)nc3ccccn3c2=O)SC(=S)N1C1CCCCC1 [CBK264696],95.2
12,CC1(C)C=Cc2cc(/C(N)=N/O)ccc2O1 [CBK006095],96.2
13,CN(C)c1cccc(-c2nc(-c3cccs3)cnc2N)c1 [CBK063979],93.5
14,CCC1CCCCN1C(=O)c1sc(C)nc1C (centres unmarked) [CBK089359],105
15,CC(C)(C)NC(=O)CN1C(=O)N2CCCN=C2c2ccc(Cl)cc21 [CBK284391],102
16,CCCc1occc1C(=O)N1CCOCC1C(=O)O (centres unmarked) [CBK304151],97.9
17,CC(=O)NCC12CC3CC(C1)CC(C(=O)O)(C3)C2 [CBK286768],93.8
18,FC(F)(F)c1ccc(Oc2ccc(-c3noc(-c4ccccn4)n3)cc2)nc1 [CBK270152],90.1

row,SMILES,"viability at 28.5 h, 10 µM [%]"
1,CCOC(=O)c1[nH]c2ccccc2c1NC(C)=O [CBK086755],92.7
2,CC(=O)c1cnc2cc(-c3ccc(Cl)cc3)nn2c1C [CBK051484],107
3,CCCC/C=C/c1cn2ccnc2c(NCCc2cccnc2)n1 [CBK066235],105
4,CC(=O)Nc1cc(C)c(C)cc1NC(C)=O [CBK025366],97.5
5,Cc1cccnc1C(NC(=O)C1CCN(CCCN2C(=O)CC3CCCCC3C2=O)CC1)c1ccc(F)cc1 (centres unmarked) [CBK147910],91.2
6,COc1ccc([C@@]23CC[C@@H](NC(=O)Nc4cccc(Br)c4)C[C@@H]2N(C)CC3)cc1OC [CBK038225T],91.4
7,COc1ccc([C@@]23CC[C@@H](NC(=O)Nc4c(F)ccc(F)c4Cl)C[C@@H]2N(C)CC3)cc1OC [CBK073769T],93
8,COc1ccc(C2C(C(=O)c3ccco3)=C(O)C(=O)N2CCN2CCOCC2)cc1OC (centres unmarked) [CBK264544],98.8
9,Cc1cccn2c(CN3CCCC(O)C3)c(C(=O)N3CCOCC3)nc12 (centres unmarked) [CBK306545],72.5
10,Cc1nn(C)cc1CN(Cc1ccc(F)cc1)CC1CCCO1 (centres unmarked) [CBK282472],98.5
11,CC(C(=O)N[C@H]1C2CCCCC2[C@@H]1c1ccccc1)N1CCOCC1 (some centres unmarked) [CBK282964],86.4
12,N#Cc1ccc(SCCOC(=O)c2cccs2)c([N+](=O)[O-])c1 [CBK066853],99
13,Cc1cc(C)cc(Oc2nccn3c(=O)[nH]nc23)c1 [CBK288451],89.5
14,CS(=O)(=O)c1ccc(-c2cnc(N)c(NCC3CCOCC3)n2)cc1 [CBK063849],103
15,CC(C)c1ccc(/C=C2\CCCc3c2nc2ccccc2c3C(=O)O)cc1 [CBK299777],91.2
16,O=[N+]([O-])c1cc(S(=O)(=O)n2ccc3ccccc32)ccc1N1CCNCC1 [CBK024593C],91.2
17,COc1ccc(CNc2ccc(N3CCOCC3)c(C(=O)O)c2)cc1OC [CBK269915],95.2
